# Assay results taken from article PMC6501426 (Clinical Epigenetics, 2019).
# Like-named read-outs stand apart in the source and are kept apart here.
# Experiments:
# human C-terminal DNMT3A = molecular target: T1, human C-terminal DNMT3A (Homo sapiens, UniProt Q9Y6K1); test: DNMT3A restriction-based fluorescence assay; format: biochemical
# T1 construct: the C-terminal catalytic domain of human DNMT3A (hDNMT3A)
# Experimental: DNMT3A enzyme inhibition was adapted from the restriction-based fluorescence assay protocol described in Ceccaldi et al.. Briefly, it is performed in a 384-well microplate in a total volume of 50 μL. An oligonucleotide labeled at the 5′ end with biotin is hybridized to his complementary strand labeled at the 3′ end with 6-carboxyfluorescein. The DNA duplex thus formed contains only one single CpG site overlapping with a restriction site of a methylation sensitive restriction enzyme. The duplex is transferred in the wells coated with avidin. Thus, the duplex is fixed to the plate. The methylation reaction is performed by adding human C-terminal DNMT3A at the final concentration of 4 ng/μL in a total volume of 50 μL in the presence of the chemical compound to be tested at the desired concentration and the cofactor SAM at the final concentration of 20 μM. After incubation (1 h at 37 °C), the plate is washed and the methylation sensitive restriction enzyme HpyCH4IV is added. After 1-h incubation at 37 °C, the plate is washed and the fluorescence measured with a PerkinElmer Envision Multilabel Plate Reader (PerkinElmer, Villebon-sur-Yvette, France). The data are expressed as a percentage of inhibition vs. log concentration (M). Data are normalized referring to the “restriction control” (wells coated with labeled duplex not treated nor exposed to DNMT3A, but only cleaved by HpyCH4IV) as the maximum of inhibition (100%) and to the “DMSO control” (wells coated with labeled duplex but treated just with 0.1% DMSO exposed to DNMT3A and then to HpyCH4IV) as the minimum of inhibition (0%; total methylation).
# KG-1 cells = test: Antiproliferative activity in KG-1 cells (Table S1); format: cell-based; conditions: Homo sapiens, read-out: % inhibition of proliferation, KG-1 cells
# Experimental: To determine the antiproliferative activity of MC3353 in KG-1 cells, the cells were seeded at day 0 in a 96-well plate and treated with test compound solutions at a dose range spanning from 3.2 × 10^−9 to 1 × 10^−5 M at days 1, 2, and 3. On day 4, cell viability was assessed using the ATPLite kit (PerkinElmer, Villebon-sur-Yvette, France).
# Afterwards, MC3353 was tested in KG-1 leukemia cells for its ability to reactivate gene expression in a stably integrated luciferase reporter construction under the control of a CMV promoter inhibited by DNA methylation (CMV-luc assay). After 5 or 24 h of incubation in the presence of drugs at the indicated concentrations, the luciferase signal was measured and normalized to the value of the non-treated cells (Table 2). Since the CMV-luc assay is highly compromised when the tested compounds induce cell death, the cytotoxicity of MC3353 against KG-1 cells at 5 and 24 h was determined in parallel. MC3353 was highly toxic for KG-1 cells after 24 h of treatment starting from a concentration of 1 μM (Additional file 1: Table S1 and indicated in stars in Table 2).
# Abl kinase (h) = molecular target: T2, Abl kinase (h) (Homo sapiens, UniProt P00519); test: Kinase panel (ExpresS Diversity Kinase Profile, Cerep); format: biochemical; conditions: read-out: % inhibition at 10 µM by MC3353, Abl kinase (h), ATP 10 μM
# T2 construct: purchased Eurofins Cerep
# T2 sequence (P00519 whole entry): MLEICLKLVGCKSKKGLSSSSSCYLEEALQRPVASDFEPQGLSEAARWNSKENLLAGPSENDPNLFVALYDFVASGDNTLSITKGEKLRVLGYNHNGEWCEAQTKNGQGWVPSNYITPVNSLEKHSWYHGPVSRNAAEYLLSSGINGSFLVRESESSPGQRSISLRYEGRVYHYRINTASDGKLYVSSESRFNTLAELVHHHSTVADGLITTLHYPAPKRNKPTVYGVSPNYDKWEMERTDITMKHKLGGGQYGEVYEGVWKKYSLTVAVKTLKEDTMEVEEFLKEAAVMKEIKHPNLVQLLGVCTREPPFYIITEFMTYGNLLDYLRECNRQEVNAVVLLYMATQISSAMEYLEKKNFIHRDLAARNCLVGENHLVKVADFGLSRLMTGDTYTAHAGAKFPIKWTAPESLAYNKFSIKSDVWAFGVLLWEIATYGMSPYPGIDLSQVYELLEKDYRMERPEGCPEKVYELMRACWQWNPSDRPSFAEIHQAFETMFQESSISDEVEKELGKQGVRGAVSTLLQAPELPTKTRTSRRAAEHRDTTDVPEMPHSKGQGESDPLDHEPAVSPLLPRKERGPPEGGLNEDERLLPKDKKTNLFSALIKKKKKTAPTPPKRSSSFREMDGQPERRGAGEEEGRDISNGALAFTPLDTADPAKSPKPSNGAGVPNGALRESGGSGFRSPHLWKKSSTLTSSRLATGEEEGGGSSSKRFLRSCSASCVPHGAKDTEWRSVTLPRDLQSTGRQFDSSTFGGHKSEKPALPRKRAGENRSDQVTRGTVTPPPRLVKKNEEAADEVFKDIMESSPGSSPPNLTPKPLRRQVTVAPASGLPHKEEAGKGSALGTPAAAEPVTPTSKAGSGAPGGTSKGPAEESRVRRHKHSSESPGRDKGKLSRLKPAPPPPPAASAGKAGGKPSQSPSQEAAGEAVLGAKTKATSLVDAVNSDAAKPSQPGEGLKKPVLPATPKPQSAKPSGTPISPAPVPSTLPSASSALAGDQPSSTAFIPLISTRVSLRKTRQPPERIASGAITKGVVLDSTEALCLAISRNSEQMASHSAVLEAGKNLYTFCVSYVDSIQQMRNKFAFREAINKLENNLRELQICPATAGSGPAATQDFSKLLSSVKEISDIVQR
# Experimental: The test compound, reference compound or water (control) were mixed with the enzyme (for the exact amount see table below) in the appropriate buffer. Thereafter, the reaction was initiated by adding the required amount of the appropriate substrate and of ATP, and the mixture is incubated at room temperature (variable reaction time, see table below). For control basal measurements, the enzyme was omitted from the reaction mixture. Following incubation, the reaction was stopped by adding 13 mM EDTA. After 5 min, the proper antibody labelled with europium chelate was added. After 60 more min, the fluorescence transfer was measured at λex=337 nm, λem=620 nm and λem=665 nm using a microplate reader (Envision, Perkin Elmer). The enzyme activity was determined by dividing the signal measured at 665 nm by that measured at 620 nm (ratio). The results are expressed as a percent inhibition of the control enzyme activity.
# MDA-MB-231 = test: Cell viability, trypan blue exclusion; format: cell-based, human
# Experimental: (§1) U-937 (acute myeloid leukemia), RAJI (Burkitt’s lymphoma), PC-3 (prostate cancer), and MDA-MB-231 (breast cancer) cell lines were obtained from the Deutsche Sammlung für Mikroorganismen and Zellkulturen (DSZM, Braunschweig, Germany) and were cultured in RPMI 1640 (Lonza, Verviers, Belgium) complemented with 10% FBS (Lonza, Verviers, Belgium) and 1% antibiotic-antimycotic (Lonza). RPMI1788 (normal B lymphocytes) and KG-1 (acute myeloid leukemia) cell lines were obtained from the American Type Culture Collection (ATCC) and were maintained in RPMI 1640 complemented with 20% FBS and IMDM complemented with 10% FBS, respectively. Cell lines were treated with compounds at the indicated concentrations in the exponential growth phase.
# (§2) Proliferation and viability of U-937, KG-1, RAJI, PC-3, MDA-MB-231, RPMI1788, PBMCs, and PHA_PBMCs were assessed by trypan blue exclusion assays at the indicated time points. Nuclear morphology changes associated with apoptosis and necrosis were evaluated by fluorescence microscopy after Hoechst and propidium iodide (PI) staining as previously described.
# (§3) IC50 values of compounds against cellular viability were determined by using nonlinear regression fitting curves with GraphPad Prism 8 or CalcuSyn software The t test used for statistical analyses was performed with GraphPad Prism 8. All the tests were one-tailed, and a p value < 0.05 was considered statistically significant.
# KG-1 = test: Cell viability, trypan blue exclusion; format: cell-based, human
# Experimental: as §1, §2, §3
# RAJI = test: Cell viability, trypan blue exclusion; format: cell-based, human
# Experimental: as §1, §2, §3
# U-937 = test: Cell viability, trypan blue exclusion; format: cell-based, human
# Experimental: as §1, §2, §3
# PC-3 = test: Cell viability, trypan blue exclusion; format: cell-based, human
# Experimental: as §1, §2, §3
# T1 sequence (Q9Y6K1 634-912 limits assumed): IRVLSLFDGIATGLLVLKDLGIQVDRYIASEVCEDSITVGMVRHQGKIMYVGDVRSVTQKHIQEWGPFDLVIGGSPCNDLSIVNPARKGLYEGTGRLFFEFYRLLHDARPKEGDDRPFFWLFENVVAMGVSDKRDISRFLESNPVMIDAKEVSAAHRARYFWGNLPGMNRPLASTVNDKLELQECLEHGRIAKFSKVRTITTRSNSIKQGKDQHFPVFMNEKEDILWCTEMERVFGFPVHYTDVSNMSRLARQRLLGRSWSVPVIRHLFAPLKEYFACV
compound,measurement,setting,value
"O=C(Nc1ccc(NC(=O)c2ccc(Nc3ccnc4ccccc34)cc2)cc1)OCc1ccccc1 [MC3353, Benzyl (4-(4-(quinolin-4-ylamino)benzamido)phenyl)carbamate]",EC50,"human C-terminal DNMT3A; fluorescent assay, C-terminal catalytic domain, read-out: EC50 ± SD, hDNMT3A",17000 ± 3000 nM
same,fold higher potency than RG-108 against hDNMT3A,human C-terminal DNMT3A; ratio of EC50 values,> 29 fold
same,fold lower potency than SGI-1027 against hDNMT3A,human C-terminal DNMT3A; ratio of EC50 values,20 fold
same,inhibition at 0.1 µM,KG-1 cells; 5h,5.5%
same,inhibition at 0.1 µM,KG-1 cells; 24h,2.9%
same,inhibition at 1 µM,KG-1 cells; 5h,17.7%
same,inhibition at 1 µM,KG-1 cells; 24h,98.7%
same,inhibition at 5 µM,KG-1 cells; 5h,81.2%
same,inhibition at 5 µM,KG-1 cells; 24h,100%
same,inhibition at 10 µM,KG-1 cells; 5h,96.8%
same,inhibition at 10 µM,KG-1 cells; 24h,100%
same,inhibition at 10 µM,Abl kinase (h),0%
same,"Selectivity index (IC50 PBMCs/IC50 cell line), MDA-MB-231",MDA-MB-231; 48 h,(9.7)
same,"Selectivity index (IC50 PHA_PBMCs/IC50 cell line), MDA-MB-231",MDA-MB-231; 48 h,(5.0)
same,"Selectivity index (IC50 RPMI1788/IC50 cell line), MDA-MB-231",MDA-MB-231; 48 h,(2.6)
same,IC50,"MDA-MB-231; Homo sapiens, MDA-MB-231, 48 h of treatment, read-out: IC50 ± SD, cell viability, MDA-MB-231",900 ± 700 nM
same,"Selectivity index (IC50 PBMCs/IC50 cell line), KG-1",KG-1; 48 h,(26.2)
same,"Selectivity index (IC50 PHA_PBMCs/IC50 cell line), KG-1",KG-1; 48 h,(13.5)
same,"Selectivity index (IC50 RPMI1788/IC50 cell line), KG-1",KG-1; 48 h,(7.2)
same,IC50,"KG-1; Homo sapiens, KG-1, 48 h of treatment, read-out: IC50 ± SD, cell viability, KG-1",300 nM
same,"Selectivity index (IC50 PBMCs/IC50 cell line), RAJI",RAJI; 48 h,(23.1)
same,"Selectivity index (IC50 PHA_PBMCs/IC50 cell line), RAJI",RAJI; 48 h,(11.9)
same,"Selectivity index (IC50 RPMI1788/IC50 cell line), RAJI",RAJI; 48 h,(6.3)
same,IC50,"RAJI; Homo sapiens, Raji, 48 h of treatment, read-out: IC50 ± SD, cell viability, RAJI",400 nM
same,"Selectivity index (IC50 PBMCs/IC50 cell line), U-937",U-937; 48 h,(24.0)
same,"Selectivity index (IC50 PHA_PBMCs/IC50 cell line), U-937",U-937; 48 h,(12.4)
same,"Selectivity index (IC50 RPMI1788/IC50 cell line), U-937",U-937; 48 h,(6.6)
same,IC50,"U-937; Homo sapiens, U-937, 48 h of treatment, read-out: IC50 ± SD, cell viability, U-937",400 nM
same,"Selectivity index (IC50 PBMCs/IC50 cell line), PC-3",PC-3; 48 h,(9.8)
same,"Selectivity index (IC50 PHA_PBMCs/IC50 cell line), PC-3",PC-3; 48 h,(5.1)
same,"Selectivity index (IC50 RPMI1788/IC50 cell line), PC-3",PC-3; 48 h,(2.7)
same,IC50,"PC-3; Homo sapiens, PC-3, 48 h of treatment, read-out: IC50 ± SD, cell viability, PC-3",900 ± 400 nM
